{"source": "patent US20120195842A1", "about": "“ENHANCED PHOTOSTABILITY OF SUNCARE CO[…]” (priority 2008, published 2012)", "test": "Photostability of avobenzone in thin films of sunscreen compositions irradiated with solar simulated UVR", "assay_type": "physicochemical", "settings": "menthyl anthranilate at all levels, composition with octisalate, homosalate and avobenzone, up to 4 hours", "description": "To investigate its stabilizing effect of menthyl anthranilate on the photostability of avobenzone, menthyl anthranilate (meradimate) was incorporated into a fixed sunscreen composition at different levels. Thin film strips of each composition were then irradiated with solar simulated UVR for up to 4 hours as described in detail below. The compositions were then analyzed for the presence of avobenzone after a given period of time. • Formula compositions were prepared as follows: […]\nAssessment of avobenzone's photostability was performed on four different compositions that differed only in the amount of menthyl anthranilate that were used in the formulation.\nThe photostability of avobenzone in each emulsion was assessed after exposure to 80 joules of UV radiation (which corresponds to about 4 hours of outside sun exposure at noon in Memphis, Tenn. in June) using the method described below. […] Even 1% menthyl anthranilate improved avobenzone's photostability by approximately 6% after 2 hours and by 17% after 4 hours of exposure. […]\nAvobenzone's photostability was assessed by spreading known weights (14-18 mg) of emulsions onto glass microscope slides at an application density of about 2 mg/cm^2. […] UVR flux was measured using an OL 754 Spectroradiometer (Optronics laboratories, Inc., Orlando, Fla.) with an 8 inch integrating sphere. […]"}
{"smiles": "CC1CCC(C(C)C)C(OC(=O)c2ccccc2N)C1", "note": "(stereo not shown) [menthyl anthranilate]", "values": [{"measurement": "effect on photostability of avobenzone to ultraviolet radiation (UVR)", "result": "improves photostability of avobenzone"}]}
